Data as given in patent publication US20150315188A1, “COMPOUNDS AND METHODS FOR TREATMENT OF HYPERTENSION” (MEDIVATION TECHNOLOGIES, INC., priority 2012, published 2015).

Legend:
Set-up in all cases: purchased Milipore (Millipore)
[1] = molecular target: T1, Human adrenergic α1B receptor (Homo sapiens, UniProt P35368); assay: Radioligand binding, adrenergic α1B (Protocol Group B); settings: Protocol Group B; for Percentage inhibition of ligand binding, Adrenergic α1B (0.1 μM) / inhibition at 0.1 µM: 0.1 μM compound; for Percentage inhibition of ligand binding, Adrenergic α1B (0.3 μM) / inhibition at 0.3 µM: 0.3 μM compound; for inhibition at 0.1 µM: read-out: Percentage inhibition of ligand binding, Adrenergic α1B (0.1 μM); for inhibition at 0.3 µM: read-out: Percentage inhibition of ligand binding, Adrenergic α1B (0.3 μM)
T1 sequence (P35368 1-520): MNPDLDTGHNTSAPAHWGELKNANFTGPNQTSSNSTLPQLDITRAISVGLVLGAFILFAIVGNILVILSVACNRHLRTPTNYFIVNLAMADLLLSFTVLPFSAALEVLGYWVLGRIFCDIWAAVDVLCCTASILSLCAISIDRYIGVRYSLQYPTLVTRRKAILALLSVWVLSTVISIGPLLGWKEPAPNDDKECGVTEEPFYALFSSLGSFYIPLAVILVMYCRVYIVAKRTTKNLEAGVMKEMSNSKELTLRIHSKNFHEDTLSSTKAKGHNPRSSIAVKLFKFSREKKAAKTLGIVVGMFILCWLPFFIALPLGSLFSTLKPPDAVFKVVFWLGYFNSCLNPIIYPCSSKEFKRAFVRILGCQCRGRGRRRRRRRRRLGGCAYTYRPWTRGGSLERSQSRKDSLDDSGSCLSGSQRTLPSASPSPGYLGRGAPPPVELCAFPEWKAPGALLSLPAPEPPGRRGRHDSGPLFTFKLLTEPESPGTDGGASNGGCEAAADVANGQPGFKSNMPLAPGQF
Outline: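 Recombinant human α1B membranes incubated with test compound and 0.3 nM [3H]prazosin, 60 min at 25 °C, in 50 mM Tris-HCl pH 7.4, 10 mM MgCl2, 1 mM EDTA; nonspecific binding with 10 μM prazosin. Filter-bound radioactivity counted; values are % inhibition of specific binding or estimated Ki.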

[2] = molecular target: T2, Human adrenergic α2B receptor (Homo sapiens, UniProt P18089); assay: Radioligand binding, adrenergic α2B (Protocol Group B); settings: Protocol Group B; for Percentage inhibition of ligand binding, Adrenergic α2B (30 nM) / inhibition at 0.03 µM: 30 nM compound; for Percentage inhibition of ligand binding, Adrenergic α2B (30 nM): 0.03 µM; for inhibition at 0.03 µM: read-out: Percentage inhibition of ligand binding, Adrenergic α2B (30 nM); for Percentage inhibition of ligand binding, Adrenergic α2B (10 nM) / inhibition at 0.01 µM: 10 nM compound; for Percentage inhibition of ligand binding, Adrenergic α2B (10 nM): 0.01 µM; for Percentage inhibition of ligand binding, Adrenergic α2B (0.1 μM) / inhibition at 0.1 µM: 0.1 μM compound; for inhibition at 0.01 µM: read-out: Percentage inhibition of ligand binding, Adrenergic α2B (10 nM); for inhibition at 0.1 µM: read-out: Percentage inhibition of ligand binding, Adrenergic α2B (0.1 μM)
T2 sequence (P18089 1-450): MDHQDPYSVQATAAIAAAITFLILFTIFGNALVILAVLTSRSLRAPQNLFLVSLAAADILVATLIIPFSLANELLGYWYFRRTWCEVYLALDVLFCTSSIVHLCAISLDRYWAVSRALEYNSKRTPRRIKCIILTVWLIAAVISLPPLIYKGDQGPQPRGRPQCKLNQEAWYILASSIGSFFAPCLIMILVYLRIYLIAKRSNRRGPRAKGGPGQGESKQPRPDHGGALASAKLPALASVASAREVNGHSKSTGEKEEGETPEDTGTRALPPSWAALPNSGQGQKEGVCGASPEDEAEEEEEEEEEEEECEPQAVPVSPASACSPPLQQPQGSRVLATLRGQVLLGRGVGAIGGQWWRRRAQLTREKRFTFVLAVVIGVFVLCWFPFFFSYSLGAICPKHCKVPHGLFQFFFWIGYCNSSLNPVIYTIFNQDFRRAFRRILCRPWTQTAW
Outline: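 Recombinant human α2B receptor membranes incubated with compounds in 50 mM Tris-HCl pH 7.4, 5 mM MgCl2, 1 mM CaCl2, 0.2% BSA, 1% DMSO vehicle. Non-specific binding defined with 10 μM rauwolscine. Values are percent inhibition of specific binding or estimated Ki.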

[3] = molecular target: T3, Human adrenergic α2A receptor (Homo sapiens, UniProt P08913); assay: Radioligand binding, adrenergic α2A (Protocol Group B); settings: Protocol Group B; for Percentage inhibition of ligand binding, Adrenergic α2A (0.1 μM) / inhibition at 0.1 µM: 0.1 μM compound; for Percentage inhibition of ligand binding, Adrenergic α2A (0.3 μM) / inhibition at 0.3 µM: 0.3 μM compound; for inhibition at 0.1 µM: read-out: Percentage inhibition of ligand binding, Adrenergic α2A (0.1 μM); for inhibition at 0.3 µM: read-out: Percentage inhibition of ligand binding, Adrenergic α2A (0.3 μM)
T3 sequence (P08913 1-465): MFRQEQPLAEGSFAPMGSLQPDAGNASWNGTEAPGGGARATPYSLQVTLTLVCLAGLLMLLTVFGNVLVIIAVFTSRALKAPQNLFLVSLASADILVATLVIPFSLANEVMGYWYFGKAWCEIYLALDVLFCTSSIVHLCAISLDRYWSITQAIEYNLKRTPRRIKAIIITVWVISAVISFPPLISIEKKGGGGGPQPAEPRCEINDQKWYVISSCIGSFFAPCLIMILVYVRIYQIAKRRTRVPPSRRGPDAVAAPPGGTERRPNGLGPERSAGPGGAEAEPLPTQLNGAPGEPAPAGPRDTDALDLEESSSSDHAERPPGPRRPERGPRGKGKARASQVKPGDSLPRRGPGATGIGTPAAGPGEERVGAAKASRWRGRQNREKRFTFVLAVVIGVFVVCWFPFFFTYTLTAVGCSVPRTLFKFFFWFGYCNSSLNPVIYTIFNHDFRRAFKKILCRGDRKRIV
Outline: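 Membranes from recombinant cells expressing the receptor, in 50 mM Tris-HCl pH 7.4 with 5 mM MgCl2, 1 mM CaCl2, 0.2% BSA; compounds incubated with 2 nM [^3H]MK-912 for 60 min at 25° C. Nonspecific binding defined by 10 μM rauwolscine; filtration, counting; percent inhibition of specific binding, or estimated Ki.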

Percentage inhibition of ligand binding, Adrenergic α1B (0.1 μM) [1] [%] | Percentage inhibition of ligand binding, Adrenergic α2B (30 nM) [2] [%] | Percentage inhibition of ligand binding, Adrenergic α2A (0.1 μM) [3] [%] | inhibition at 0.03 µM [2] [%] | Percentage inhibition of ligand binding, Adrenergic α1B (0.3 μM) [1] [%] | Percentage inhibition of ligand binding, Adrenergic α2B (10 nM) [2] [%] | Percentage inhibition of ligand binding, Adrenergic α2B (0.1 μM) [2] [%] | Percentage inhibition of ligand binding, Adrenergic α2A (0.3 μM) [3] [%] | inhibition at 0.1 µM [1] [%] | inhibition at 0.3 µM [1] [%] | inhibition at 0.01 µM [2] [%] | inhibition at 0.1 µM [2] [%] | inhibition at 0.1 µM [3] [%] | inhibition at 0.3 µM [3] [%] | SMILES
1 | 1 | 1 |  |  |  |  |  |  |  |  |  |  |  | OC(Cn1c2c(c3cc(F)cc(F)c31)C1CCCN1CC2)c1ccncc1 (single isomer, unassigned) [144d]
46 |  | 39 | 84 |  |  |  |  |  |  |  |  |  |  | Cc1cc(Br)c2c(c1)c1c(n2CC(O)c2ccncc2)CCN2CCCC12 (single isomer, unassigned) [145a]
68 | 100 | 89 |  |  |  |  |  |  |  |  |  |  |  | Cc1cc(Br)c2c(c1)c1c(n2CC(O)c2ccncc2)CCN2CCCC12 (single isomer, unassigned) [145b]
14 | 11 | −2 |  | 21 | −2 | 30 | 11 |  |  |  |  |  |  | Cc1ccc2c(c1)c1c(n2CC(C)(O)c2cccnc2)CC2CCCN2C1 (stereo not drawn) [38a]
1 | 14 | −4 |  | 12 | 1 | 22 | 3 |  |  |  |  |  |  | Cc1ccc2c(c1)c1c(n2CC(C)(O)c2cccnc2)CC2CCCN2C1 (stereo not drawn) [38d]
−2 | 51 | −7 |  | −3 | 24 | 80 | 6 |  |  |  |  |  |  | Cc1ccc2c(c1)c1c(n2CC(C)(O)c2cccnc2)CC2CCCN2C1 (stereo not drawn) [41a]
−11 | −14 | −16 |  | −4 | −14 | −2 | −5 |  |  |  |  |  |  | Cc1ccc2c(c1)c1c(n2CC(C)(O)c2cccnc2)CC2CCCN2C1 (stereo not drawn) [41b]
1 | −10 | −12 |  | −5 | −8 | 0 | 1 |  |  |  |  |  |  | Cc1ccc2c(c1)c1c(n2CC(C)(O)c2cccnc2)CC2CCCN2C1 (stereo not drawn) [41c]
−2 | 21 | −7 |  | −1 | 9 | 48 | 13 |  |  |  |  |  |  | Cc1ccc2c(c1)c1c(n2CC(C)(O)c2cccnc2)CC2CCCN2C1 (stereo not drawn) [41d]
−6 | 93 | 16 |  | 19 | 79 | 97 | 39 |  |  |  |  |  |  | CC(O)(Cn1c2c(c3cc(F)ccc31)C1CCCN1CC2)c1cccnc1 (stereo not drawn) [51a]
−8 | 69 | 13 |  | 4 | 45 | 86 | 34 |  |  |  |  |  |  | CC(O)(Cn1c2c(c3cc(F)ccc31)C1CCCN1CC2)c1cccnc1 (stereo not drawn) [51b]
−4 | 0 | −12 |  | −4 | −7 | 14 | −11 |  |  |  |  |  |  | CC(O)(Cn1c2c(c3cc(F)ccc31)C1CCCN1CC2)c1cccnc1 (stereo not drawn) [57a]
−10 | −4 | −6 |  | −7 | −7 | 8 | −7 |  |  |  |  |  |  | CC(O)(Cn1c2c(c3cc(F)ccc31)C1CCCN1CC2)c1cccnc1 (stereo not drawn) [57b]
 |  |  | 97 |  |  |  |  | 28 | 62 | 84 | 99 | 39 | 65 | Cc1ccc2c(c1)c1c(n2CC(OCC2CCC2)c2ccncc2)CCN(C)C1 (stereo not drawn) [59b]
 |  |  | -4 |  |  |  |  | -1 | 1 | -10 | -1 | -3 | 5 | Cc1cc(F)cc2c3c(n(CC(C)(O)c4cccnc4)c12)CCN1CCCC31 (stereo not drawn) [75b]
 |  |  | -5 |  |  |  |  | -12 | -3 | -7 |  | -14 | -17 | CC(O)(Cn1c2c(c3cc(C(F)(F)F)ccc31)CN1CCCC1C2)c1cccnc1 (stereo not drawn) [85b]
 |  |  | 93 |  |  |  |  | 55 |  |  |  | 85 |  | Cc1cc(C)c2c(c1)c1c(n2CC(O)C2CCCCC2)CCN2CCCC12 (stereo not drawn) [141a]
57 | 92 | 81 |  |  |  |  |  |  |  |  |  |  |  | Cc1cc(C)c2c(c1)c1c(n2CC(O)C2CCCCC2)CCN2CCCC12 (stereo not drawn) [141b]
